Reference: US9995734B2, “Human T cell line assay for evaluating the immunologic identity of glatiramer acetate preparations” (Mylan Inc., priority 2013, dated 2018)
Several values for one entry are separate records, joined by “and”; a condition that tells them apart may be missing. Equal entries are not always repeated.

Tested on: Donor 3 GMA T-Cell Lines
Assay: ATP proliferation assay (CellTiter Glo), Donor 3 GMA T-cell lines, incl. reactivity to non-canonical GA peptides
Assay type: cell-based, human
Details: for proliferation response to non-canonical GA peptides: 0, 1, 3, 10, 30 μg/mL; for Non-Canonical Peptide Non-Reactivity: proliferation <2 times no antigen control; for Non-Canonical Peptide Reactivity: at least one proliferation value >=2 times no antigen control

poly (Glu-Lys-Tyr; 6:3:1) [GLT 631] was tested, and the “proliferation response to non-canonical GA peptides” value (165-B5G and 165-E7G, Day 81) was “responded well”, the “Non-Canonical Peptide Non-Reactivity” value (165-B5G) was “GLT 631” and the “Non-Canonical Peptide Non-Reactivity” value (165-C5G) was “GLT 631”. The “Non-Canonical Peptide Reactivity” value (165-E7G) was “GLT 631”, the “Non-Canonical Peptide Non-Reactivity” value (165-E9G) was “GLT 631” and the “Non-Canonical Peptide Non-Reactivity” value (165-F5G) was “GLT 631”. The “Non-Canonical Peptide Non-Reactivity” value (165-F10G) was “GLT 631”, the “proliferation response to non-canonical GA peptides” value (165-H11G, Day 50) was “responded” and the “Non-Canonical Peptide Reactivity” value (165-H11G) was “GLT 631”. For the same substance, the “Reactive T-Cell Line” value (Donor 3 GMA lines, at least a 50% increase in proliferation relative to a control after stimulation with the non-canonical GA peptide) was 165-H11G (Donor 3), the “Nonreactive T-Cell Line” value (Donor 3 GMA lines, stimulation with the non-canonical GA peptide) was 165-B5G (Donor 3) and 165-C5G (Donor 3) and 165-C8G (Donor 3) and 165-E7G (Donor 3) and 165-E9G (Donor 3) and 165-F5G (Donor 3) and 165-F10G (Donor 3) and the “Proliferation (luminescent ATP assay), Mean” value (“Proliferation … Mean” for short) (T-cell line 165-05G, 1 μg/mL antigen, Day 50 of culturing, No Antigen Value 2149) was 1871 RLU. The “Proliferation … Mean” value (T-cell line 165-05G, 3 μg/mL antigen, Day 50 of culturing, No Antigen Value 2149) was 2268 RLU, the “Proliferation … Mean” value (T-cell line 165-05G, 10 μg/mL antigen, Day 50 of culturing, No Antigen Value 2149) was 2256 RLU and the “Proliferation … Mean” value (T-cell line 165-05G, 30 μg/mL antigen, Day 50 of culturing, No Antigen Value 2149) was 2137 RLU. For the same substance, the “Proliferation … Mean” value (T-cell line 165-B5G, 1 μg/mL antigen, Day 81 of culturing, No Antigen Value 2432) was 4288 RLU, the “Proliferation … Mean” value (T-cell line 165-B5G, 1.25 μg/mL antigen, Day 55 of culturing, No Antigen Value 846) was 1054 RLU and the “Proliferation … Mean” value (T-cell line 165-B5G, 2.5 μg/mL antigen, Day 55 of culturing, No Antigen Value 846) was 1159 RLU. The “Proliferation … Mean” value (T-cell line 165-B5G, 3 μg/mL antigen, Day 81 of culturing, No Antigen Value 2432) was 5153 RLU, the “Proliferation … Mean” value (T-cell line 165-B5G, 5 μg/mL antigen, Day 55 of culturing, No Antigen Value 846) was 1687 RLU and the “Proliferation … Mean” value (T-cell line 165-B5G, 10 μg/mL antigen, Day 55 of culturing, No Antigen Value 846) was 3589 RLU. The “Proliferation … Mean” value (T-cell line 165-B5G, 10 μg/mL antigen, Day 81 of culturing, No Antigen Value 2432) was 11847 RLU, the “Proliferation … Mean” value (T-cell line 165-B5G, 30 μg/mL antigen, Day 81 of culturing, No Antigen Value 2432) was 11416 RLU and the “Proliferation … Mean” value (T-cell line 165-C5G, 1.25 μg/mL antigen, autologous B-LCL) was 485 RLU. The “Proliferation … Mean” value (T-cell line 165-C5G, 2.5 μg/mL antigen, autologous B-LCL) was 552 RLU, the “Proliferation … Mean” value (T-cell line 165-C5G, 5 μg/mL antigen, autologous B-LCL) was 585 RLU and the “Proliferation … Mean” value (T-cell line 165-C5G, 10 μg/mL antigen, autologous B-LCL) was 579 RLU. The “Proliferation … Mean” value (T-cell line 165-E7G, 1 μg/mL antigen, Day 81 of culturing, No Antigen Value 2145) was 3992 RLU, the “Proliferation … Mean” value (T-cell line 165-E7G, 1.25 μg/mL antigen, autologous B-LCL, Day 55) was 2983 RLU and the “Proliferation … Mean” value (T-cell line 165-E7G, 2.5 μg/mL antigen, autologous B-LCL, Day 55) was 3783 RLU. The “Proliferation … Mean” value (T-cell line 165-E7G, 3 μg/mL antigen, Day 81 of culturing, No Antigen Value 2145) was 5133 RLU, the “Proliferation … Mean” value (T-cell line 165-E7G, 5 μg/mL antigen, autologous B-LCL, Day 55) was 5821 RLU and the “Proliferation … Mean” value (T-cell line 165-E7G, 10 μg/mL antigen, Day 81 of culturing, No Antigen Value 2145) was 12006 RLU. The “Proliferation … Mean” value (T-cell line 165-E7G, 10 μg/mL antigen, autologous B-LCL, Day 55) was 5710 RLU, the “Proliferation … Mean” value (T-cell line 165-E7G, 30 μg/mL antigen, Day 81 of culturing, No Antigen Value 2145) was 12836 RLU and the “Proliferation … Mean” value (T-cell line 165-E9G, 1 μg/mL antigen, Day 50 of culturing, No Antigen Value 1742) was 1630 RLU. The “Proliferation … Mean” value (T-cell line 165-E9G, 1.25 μg/mL antigen, autologous B-LCL) was 142 RLU, the “Proliferation … Mean” value (T-cell line 165-E9G, 2.5 μg/mL antigen, autologous B-LCL) was 195 RLU and the “Proliferation … Mean” value (T-cell line 165-E9G, 3 μg/mL antigen, Day 50 of culturing, No Antigen Value 1742) was 1600 RLU. The “Proliferation … Mean” value (T-cell line 165-E9G, 5 μg/mL antigen, autologous B-LCL) was 233 RLU, the “Proliferation … Mean” value (T-cell line 165-E9G, 10 μg/mL antigen, autologous B-LCL) was 312 RLU and the “Proliferation … Mean” value (T-cell line 165-E9G, 30 μg/mL antigen, Day 50 of culturing, No Antigen Value 1742) was 2152 RLU. For the same substance, the “Proliferation … Mean” value (T-cell line 165-E9G, 10 μpg/mL antigen, Day 50 of culturing, No Antigen Value 1742) was 2341 RLU, the “Proliferation … Mean” value (T-cell line 165-F5G, 1.25 μg/mL antigen, autologous B-LCL) was 131 RLU and the “Proliferation … Mean” value (T-cell line 165-F5G, 2.5 μg/mL antigen, autologous B-LCL) was 143 RLU. The “Proliferation … Mean” value (T-cell line 165-F5G, 5 μg/mL antigen, autologous B-LCL) was 176 RLU, the “Proliferation … Mean” value (T-cell line 165-F5G, 10 μg/mL antigen, autologous B-LCL) was 110 RLU and the “Proliferation … Mean” value (T-cell line 165-F10G, 1 μg/mL antigen, Day 50 of culturing, No Antigen Value 3752) was 3363 RLU. The “Proliferation … Mean” value (T-cell line 165-F10G, 1.25 μg/mL antigen, autologous B-LCL) was 1012 RLU, the “Proliferation … Mean” value (T-cell line 165-F10G, 2.5 μg/mL antigen, autologous B-LCL) was 1389 RLU and the “Proliferation … Mean” value (T-cell line 165-F10G, 3 μg/mL antigen, Day 50 of culturing, No Antigen Value 3752) was 3061 RLU. For the same substance, the “Proliferation … Mean” value (T-cell line 165-F10G, 5 μg/mL antigen, autologous B-LCL) was 2620 RLU, the “Proliferation … Mean” value (T-cell line 165-F10G, 10 μg/mL antigen, Day 50 of culturing, No Antigen Value 3752) was 4823 RLU and the “Proliferation … Mean” value (T-cell line 165-F10G, 10 μg/mL antigen, autologous B-LCL) was 2505 RLU. The “Proliferation … Mean” value (T-cell line 165-F10G, 30 μg/mL antigen, Day 50 of culturing, No Antigen Value 3752) was 4568 RLU.
